Measured values from patent US12599136B2, “Substituted isophthalic acid diamides and their use as herbicides” (Bayer Aktiengesellschaft, priority 2020, dated 2026).

Key:
Assay type in all cases: in vivo
[1] = tested on: Hordeum murinum; assay: Pre-emergence herbicidal action against HORMU; conditions: 320 g/ha; visual score after 3 weeks vs untreated controls
In short: (§1)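 Visual rating at 3 weeks vs untreated pots; 0–100% scale, 100% = plants died. Treatment: aqueous WP/EC spray onto covering soil, 600–800 l/ha, 0.2% wetter, seeds in sandy loam.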

[2] = tested on: Veronica persica; assay: Post-emergence herbicidal action against VERPE; conditions: visual assessment about 3 weeks after treatment
In short: (§2)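 Weeds in sandy loam soil received a post-emergence spray at the one-leaf stage. Compounds were applied as WP or EC in water, 600 to 800 l/ha, with 0.2% wetting agent. Activity in % was judged visually after roughly 3 weeks against untreated plants.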

[3] = tested on: Matricaria inodora; assay: Post-emergence herbicidal action against MATIN; conditions: visual assessment about 3 weeks after treatment
In short: as §2

[4] = tested on: Cyperus esculentus; assay: Pre-emergence herbicidal action against CYPES; conditions: visual score after 3 weeks vs untreated controls
In short: as §1

[5] = tested on: Echinochloa crus-galli; assay: Post-emergence herbicidal action against ECHCG; conditions: visual assessment about 3 weeks after treatment
In short: as §2

[6] = tested on: Abutilon theophrasti; assay: Post-emergence herbicidal action against ABUTH
In short: as §2

[7] = tested on: Pharbitis purpurea; assay: Post-emergence herbicidal action against PHBPU; conditions: visual assessment about 3 weeks after treatment
In short: as §2

[8] = tested on: Veronica persica; assay: Pre-emergence herbicidal action against VERPE
In short: as §1

[9] = tested on: Viola tricolor; assay: Post-emergence herbicidal action against VIOTR
In short: as §2

[10] = tested on: Avena fatua; assay: Post-emergence herbicidal action against AVEFA; conditions: visual assessment about 3 weeks after treatment
In short: as §2

[11] = tested on: Echinochloa crus-galli; assay: Pre-emergence herbicidal action against ECHCG; conditions: 320 g/ha; visual score after 3 weeks vs untreated controls
In short: as §1

[12] = tested on: Cyperus esculentus; assay: Post-emergence herbicidal action against CYPES; conditions: 80 g/ha, visual assessment about 3 weeks after treatment
Method: (§3) Seeds of monocotyledonous and dicotyledonous weed and crop plants are laid out in sandy loam soil in wood-fiber pots, covered with soil and cultivated in a greenhouse under good growth conditions. 2 to 3 weeks after sowing, the test plants are treated at the one-leaf stage. The compounds of the invention, formulated in the form of wettable powders (WP) or as emulsion concentrates (EC), are then sprayed onto the green parts of the plants in the form of an aqueous suspension or emulsion at a water application rate equivalent to 600 to 800 l/ha, with addition of 0.2% wetting agent. After the test plants have been left to stand in the greenhouse under optimal growth conditions for about 3 weeks, the action of the preparations is assessed visually in comparison to untreated controls (herbicidal action in percent (%): 100% activity=the plants have died, 0% activity=like control plants). […] The tables below illustrate, in an illustrative manner, the post-emergence herbicidal action of the compounds of the invention, the herbicidal activity being stated in percent.

[13] = tested on: Alopecurus myosuroides; assay: Post-emergence herbicidal action against ALOMY
In short: as §2

[14] = tested on: Alopecurus myosuroides; assay: Pre-emergence herbicidal action against ALOMY; conditions: visual score after 3 weeks vs untreated controls
In short: as §1

[15] = tested on: Amaranthus retroflexus; assay: Pre-emergence herbicidal action against AMARE; conditions: visual score after 3 weeks vs untreated controls
In short: as §1

[16] = tested on: Amaranthus retroflexus; assay: Post-emergence herbicidal action against AMARE; conditions: visual assessment about 3 weeks after treatment
In short: as §2

[17] = tested on: Abutilon theophrasti; assay: Pre-emergence herbicidal action against ABUTH; conditions: visual score after 3 weeks vs untreated controls
In short: as §1

[18] = tested on: Avena fatua; assay: Pre-emergence herbicidal action against AVEFA; conditions: visual score after 3 weeks vs untreated controls
In short: as §1

[19] = tested on: Lolium rigidum; assay: Post-emergence herbicidal action against LOLRI; conditions: 80 g/ha
Method: as §3

[20] = tested on: Stellaria media; assay: Pre-emergence herbicidal action against STEME
In short: as §1

[21] = tested on: Setaria viridis; assay: Post-emergence herbicidal action against SETVI; conditions: visual assessment about 3 weeks after treatment
In short: as §2

[22] = tested on: Setaria viridis; assay: Pre-emergence herbicidal action against SETVI
In short: as §1

[23] = tested on: Stellaria media; assay: Post-emergence herbicidal action against STEME; conditions: visual assessment about 3 weeks after treatment
In short: as §2

[24] = tested on: Polygonum convolvulus; assay: Pre-emergence herbicidal action against POLCO
In short: as §1

[25] = tested on: Lolium rigidum; assay: Pre-emergence herbicidal action against LOLRI; conditions: 320 g/ha
In short: as §1

[26] = tested on: Matricaria inodora; assay: Pre-emergence herbicidal action against MATIN; conditions: visual score after 3 weeks vs untreated controls
In short: as §1

[27] = tested on: Viola tricolor; assay: Pre-emergence herbicidal action against VIOTR; conditions: 320 g/ha
In short: as §1

[28] = tested on: Polygonum convolvulus; assay: Post-emergence herbicidal action against POLCO; conditions: 80 g/ha, visual assessment about 3 weeks after treatment
In short: as §2

**Q.** How did the “Pre-emergence action against HORMU” value [1] turn out when CCn1nnnc1NC(=O)c1ccc(C(F)(F)F)c(C(=O)N2CCCC2)c1Cl [Example 2-152] was run?
**A.** Its value is 80%.

**Q.** And the “Post-emergence action against VERPE in %” value ([2]; 5 g/ha)?
**A.** Its value is 80%.

**Q.** What about the “Post-emergence action against VERPE in %” value ([2]; 20 g/ha) of the same compound?
**A.** The value was 80%.

**Q.** What about the “Post-emergence action against VERPE in %” value ([2]; 80 g/ha) of the same compound?
**A.** Its value is 80%.

**Q.** And the “Post-emergence action against MATIN in %” value ([3]; 5 g/ha)?
**A.** Its value is 80%.

**Q.** And the “Post-emergence action against MATIN in %” value ([3]; 20 g/ha)?
**A.** Its value is 80%.

**Q.** What about the “Post-emergence action against MATIN in %” value ([3]; 80 g/ha) of the same compound?
**A.** Its value is 100%.

**Q.** What about the “Pre-emergence action against CYPES” value ([4]; 80 g/ha) of the same compound?
**A.** The value was 80%.

**Q.** What about the “Pre-emergence action against CYPES” value ([4]; 320 g/ha) of the same compound?
**A.** Its value is 100%.

**Q.** And the “Post-emergence action against ECHCG in %” value ([5]; 20 g/ha)?
**A.** The value was 100%.

**Q.** What about the “Post-emergence action against ECHCG in %” value ([5]; 80 g/ha) of the same compound?
**A.** Its value is 100%.

**Q.** And the “Post-emergence action against ABUTH” value ([6]; 5 g/ha)?
**A.** The value was 80%.

**Q.** What about the “Post-emergence action against ABUTH” value ([6]; 20 g/ha) of the same compound?
**A.** The value was 80%.

**Q.** And the “Post-emergence action against ABUTH” value ([6]; 80 g/ha)?
**A.** The value was 80%.

**Q.** What about the “Post-emergence action against PHBPU in %” value ([7]; 20 g/ha) of the same compound?
**A.** The value was 80%.

**Q.** What about the “Post-emergence action against PHBPU in %” value ([7]; 80 g/ha) of the same compound?
**A.** Its value is 80%.

**Q.** And the “Pre-emergence action against VERPE” value ([8]; 80 g/ha)?
**A.** Its value is 80%.

**Q.** And the “Pre-emergence action against VERPE” value ([8]; 320 g/ha)?
**A.** The value was 100%.

**Q.** And the “Post-emergence action against VIOTR in %” value ([9]; 20 g/ha)?
**A.** Its value is 100%.

**Q.** And the “Post-emergence action against VIOTR in %” value ([9]; 80 g/ha)?
**A.** The value was 100%.

**Q.** What about the “Post-emergence action against AVEFA in %” value ([10]; 5 g/ha) of the same compound?
**A.** The value was 80%.

**Q.** What about the “Post-emergence action against AVEFA in %” value ([10]; 20 g/ha) of the same compound?
**A.** Its value is 100%.

**Q.** And the “Post-emergence action against AVEFA in %” value ([10]; 80 g/ha)?
**A.** Its value is 100%.

**Q.** What about the “Pre-emergence action against ECHCG” value [11] of the same compound?
**A.** The value was 100%.

**Q.** What about the “Post-emergence action against CYPES in %” value [12] of the same compound?
**A.** Its value is 80%.

**Q.** What about the “Post-emergence action against ALOMY” value ([13]; 5 g/ha) of the same compound?
**A.** Its value is 80%.

**Q.** And the “Post-emergence action against ALOMY” value ([13]; 20 g/ha)?
**A.** The value was 90%.

**Q.** What about the “Post-emergence action against ALOMY” value ([13]; 80 g/ha) of the same compound?
**A.** Its value is 100%.

**Q.** What about the “Pre-emergence action against ALOMY” value ([14]; 80 g/ha) of the same compound?
**A.** The value was 90%.

**Q.** And the “Pre-emergence action against ALOMY” value ([14]; 320 g/ha)?
**A.** The value was 100%.

**Q.** And the “Pre-emergence action against AMARE” value ([15]; 20 g/ha)?
**A.** Its value is 100%.

**Q.** And the “Pre-emergence action against AMARE” value ([15]; 80 g/ha)?
**A.** The value was 100%.

**Q.** And the “Pre-emergence action against AMARE” value ([15]; 320 g/ha)?
**A.** The value was 100%.

**Q.** And the “Post-emergence action against AMARE in %” value ([16]; 5 g/ha)?
**A.** The value was 100%.

**Q.** And the “Post-emergence action against AMARE in %” value ([16]; 20 g/ha)?
**A.** The value was 100%.

**Q.** What about the “Post-emergence action against AMARE in %” value ([16]; 80 g/ha) of the same compound?
**A.** The value was 100%.

**Q.** What about the “Pre-emergence action against ABUTH” value ([17]; 20 g/ha) of the same compound?
**A.** Its value is 100%.

**Q.** What about the “Pre-emergence action against ABUTH” value ([17]; 80 g/ha) of the same compound?
**A.** Its value is 100%.

**Q.** What about the “Pre-emergence action against ABUTH” value ([17]; Dosage column 320 g/ha (heading prints 3200 g/ha)) of the same compound?
**A.** Its value is 100%.

**Q.** What about the “Pre-emergence action against AVEFA” value ([18]; 80 g/ha) of the same compound?
**A.** The value was 100%.

**Q.** And the “Pre-emergence action against AVEFA” value ([18]; 320 g/ha)?
**A.** Its value is 100%.

**Q.** What about the “Post-emergence action against LOLRI in %” value [19] of the same compound?
**A.** The value was 90%.

**Q.** What about the “Pre-emergence action against STEME” value ([20]; 20 g/ha) of the same compound?
**A.** Its value is 100%.

**Q.** And the “Pre-emergence action against STEME” value ([20]; 80 g/ha)?
**A.** Its value is 100%.

**Q.** And the “Pre-emergence action against STEME” value ([20]; 320 g/ha)?
**A.** Its value is 100%.

**Q.** What about the “Post-emergence action against SETVI in %” value ([21]; 20 g/ha) of the same compound?
**A.** The value was 80%.

**Q.** And the “Post-emergence action against SETVI in %” value ([21]; 80 g/ha)?
**A.** The value was 100%.

**Q.** What about the “Pre-emergence action against SETVI” value ([22]; 80 g/ha) of the same compound?
**A.** The value was 90%.

**Q.** What about the “Pre-emergence action against SETVI” value ([22]; 320 g/ha) of the same compound?
**A.** Its value is 100%.

**Q.** And the “Post-emergence action against STEME in %” value ([23]; 5 g/ha)?
**A.** The value was 80%.

**Q.** What about the “Post-emergence action against STEME in %” value ([23]; 20 g/ha) of the same compound?
**A.** The value was 90%.

**Q.** What about the “Post-emergence action against STEME in %” value ([23]; 80 g/ha) of the same compound?
**A.** The value was 90%.

**Q.** What about the “Pre-emergence action against POLCO” value ([24]; 80 g/ha) of the same compound?
**A.** Its value is 80%.

**Q.** What about the “Pre-emergence action against POLCO” value ([24]; 320 g/ha) of the same compound?
**A.** Its value is 90%.

**Q.** What about the “Pre-emergence action against LOLRI” value [25] of the same compound?
**A.** The value was 100%.

**Q.** And the “Pre-emergence action against MATIN” value ([26]; 20 g/ha)?
**A.** Its value is 90%.

**Q.** And the “Pre-emergence action against MATIN” value ([26]; 80 g/ha)?
**A.** Its value is 100%.

**Q.** And the “Pre-emergence action against MATIN” value ([26]; 320 g/ha)?
**A.** The value was 100%.

**Q.** What about the “Pre-emergence action against VIOTR” value [27] of the same compound?
**A.** Its value is 100%.

**Q.** What about the “Post-emergence action against POLCO in %” value [28] of the same compound?
**A.** The value was 80%.
